Test results from US11377447B2, “Targeted therapeutics” (MADRIGAL PHARMACEUTICALS, INC., priority 2017, dated 2022).

Assay: pH of reconstituted and diluted drug product solution
Assay type: physicochemical
Conditions: lyophilized powder reconstituted with Water for Injection
Description: This solution is filled to deliver 105 mg/vial into a container closure system consisting of a USP Type 1 clear glass vial, stopper, and overseal. The drug product is stored at 2° C. to 8° C., away from light. Prior to administration the lyophilized powder is reconstituted with Water for Injection and then is further diluted in 0.9% Sodium Chloride Injection, USP to the target concentration prior to use. SDC-TRAP-0063 Sodium may have a concentration of between about 25 to about 50 mg/mL, between about 50 to about 100 mg/mL, between about 100 to about 150 mg/mL, or between about 150 to 200 mg/mL. The drug product is intended for intravenous administration by infusion.
The reconstituted solution of SDC-TRAP-0063 Sodium has a pH of 10.0. This solution is diluted to the target dose in 0.9% sodium chloride injection, USP. The pH of the infusion solution depends on the concentration of SDC-TRAP-0063 Sodium in the diluted infusion solution. Across the dose ranges employed in the clinical study protocol, the volume of the diluted infusion solution administered will range from 50 to 500 mL, and the pH will range from 8.1 to 9.6. In order to reduce the potential risks of injection site pain and/or damage to the venous endothelium during IV administration, a central venous access line is used for administration of the diluted SDC-TRAP-0063 Sodium.

## CCc1c2c(nc3ccc(OC(=O)N4CCC(CCn5ccc6cc(-n7c(O)nnc7-c7cc(C(C)C)c(O)cc7O)ccc65)CC4)cc13)-c1cc([C@@](O)(CC)C(=O)[O-])c(CO)c(=O)n1C2.[Na+] [SDC-TRAP-0063 Sodium, Sodium (S)-2-(2-((4-(2-(5-(3-(2,4-dihydroxy-5-isopropylphenyl)-5-hydroxy-4H-1,2,4-triazol-4-yl)-1H-indol-1-yl)ethyl)piperidine-1-carbonyl)oxy)-12-ethyl-8-(hydroxymethyl)-9-oxo-9,11-dihydroindolizino[1,2-b]quinolin-7-yl)-2-hydroxybutanoate]
  pH of the reconstituted solution: 10.0
